Target: recombinant human cannabinoid 1 receptor (CB1) (Homo sapiens, UniProt P21554)
Conditions: compound at 1 µM; 100 % = difference between maximal effect of WIN 55,212-2 alone and WIN 55,212-2 plus Rimonabant (1 µM)
Method: Chinese hamster ovary (CHO) cells stably expressing recombinant human cannabinoid 1 receptor (CB1) are cultured in nutrient mixture Ham's F 12 supplemented with 10 % heat-inactivated fetal bovine serum, 2 mM L-glutamine, 50 U/ml penicillin, 50 U/ml streptomycin and 0.5 mg/ml geneticin. In order to obtain cells, culture flasks are washed twice with phosphate buffered saline and scraped. Then, cells are collected by centrifugation (200 x g, 10 min) and stored dry at -80°C. Cells are homogenized in ice-cold 20 mM HEPES, 10 mM EDTA (pH 7.5) and centrifuged at 40,000 x g for 15 min at 4°C. The membrane pellet is resuspended in 20 mM HEPES, 0.1 1 mM EDTA (pH 7.5) and centrifuged for 15 min at 4°C. The final membrane pellet is resuspended in 20 mM HEPES, 0.1 1 mM EDTA (pH 7.5), and divided in aliquots and stored at -80°C until use.
The reaction is performed in 96-well plates. Membranes (15 µg protein/well) are incubated for 60 min at 30 °C in buffer (50 mM HEPES, 100 mM KCI, 5 mM MgCl2,1 mM EDTA, 0.1 % wt/vol bovine serum albumin, 5 µM GDP, saponin (10 µg/ml), 0.5 nM [^35S]GTPγS, pH 7.4) with compound at a final concentration of 1 µM in either the absence or presence of agonist WIN 55,212-2 between 3 nM and 3 µM. […] Radioactivity is determined using a Wallac Microbeta Trilux. […]

Sequence of recombinant human cannabinoid 1 receptor (CB1) (P21554 whole entry): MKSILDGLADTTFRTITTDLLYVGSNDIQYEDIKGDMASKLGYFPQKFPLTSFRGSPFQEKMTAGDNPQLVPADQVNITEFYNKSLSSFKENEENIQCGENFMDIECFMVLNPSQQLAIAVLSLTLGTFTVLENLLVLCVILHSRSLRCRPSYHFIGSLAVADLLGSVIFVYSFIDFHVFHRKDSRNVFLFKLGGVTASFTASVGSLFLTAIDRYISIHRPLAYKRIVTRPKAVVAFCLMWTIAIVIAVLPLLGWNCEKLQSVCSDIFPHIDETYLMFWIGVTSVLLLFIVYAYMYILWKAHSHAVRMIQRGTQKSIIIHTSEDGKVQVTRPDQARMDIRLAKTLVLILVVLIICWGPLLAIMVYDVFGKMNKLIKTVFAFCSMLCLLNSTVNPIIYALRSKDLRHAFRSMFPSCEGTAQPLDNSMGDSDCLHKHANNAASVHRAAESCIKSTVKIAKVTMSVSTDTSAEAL

`O=C(NN1CCCCC1)C1=NN(c2ccc(Cl)cc2Cl)[C@@H](c2ccc(Cl)cc2)C1` [Compound A, (R)-N-piperidinyl-5-(4-chlorophenyl)-1-(2,4-dichlorophenyl)-4,5-dihydro-1H-pyrazole-3-carboxamide] showed an Antagonism of 106%.
